Reference: patent EP0365837B1 (DANA FARBER CANCER INSTITUTE, priority 1988, dated 1990)
Several values for one entry are separate records, joined by “and”; a condition that tells them apart may be missing. Equal values may be shown once. Read-outs that look alike come from different tables or passages of the source. *1 amine or outer side, *2 acyl side, *3 side chain or, on linkers, in order; H or OH if unused. Where a SMILES comes first, the peptide text is derived from it. Bridges are numbered along the chain shown (N, C = ends). Roman numbers before positions name the chains, in order. [ ]: non-standard residue; d: D form. Actinocin(9to1) = Cc1c2oc3c(C)ccc(C(=O)[*:1])c3nc-2c(C(=O)[*:2])c(N)c1=O; NMeV = CN[C@H](C(=O)O)C(C)C; Sar = CNCC(=O)O

What was measured:
human dermal fibroblasts = type: cell-based
Procedure: The kinetics of interleukin 1 and gamma interferon effects on ICAM-1 expression on dermal fibroblasts were determined using the ¹²⁵I goat anti-mouse IgG binding assay of Dustin, M.L. et al. (J. Immunol. 137:245-254 (1986); which reference is herein incorporated by reference). To perform this binding assay, human dermal fibroblasts were grown in a 96-well microtiter plate to a density of 2-8 x 10⁴ cells/well (0.32 cm²). The cells were washed twice with RPMI 1640 medium supplemented as described in Example 1. The cells were additionally washed once with Hanks Balanced Salt Solution (HBSS), 10 mM HEPES, 0.05% NaN₃ and 10% heat-inactivated fetal bovine serum. Washing with this binding buffer was done at 4°C. To each well was added 50 »l of the above-described binding buffer and 50 »l of the appropriate hybridoma supernatant with X63 and W6/32 as the negative and positive controls, respectively. After incubation for 30 minutes at 4°C, with gentle agitation, the wells were washed twice with binding buffer, and the second antibody ¹²⁵I-goat anti-mouse IgG, was added at 50 nCi in 100 »l. The ¹²⁵I-goat anti-mouse antibody was prepared by using Iodogen (Pierce) according to the method of Fraker, P.J. et al. (Biochem. Biophys. Res. Commun. 80:849 (1978)). After 30 minutes at 4°C, the wells were washed twice with 200 »l of binding buffer and the cell layer was solubilized by adding 100 »l of 0.1 N NaOH. This and a 100 »l wash were counted in a Beckman 5500 gamma counter. The specific counts per minute bound was calculated as [cpm with monoclonal antibody]-[cpm with X63]. All steps, including induction with specific reagents, were carried out in quadruplicate.

[1] = tested on: human umbilical vein endothelial cells (HUVEC); assay: Radioimmune assay of ICAM-1 expression (¹²⁵I RR1/1 binding) on HUVEC; type: cell-based
Procedure: In order to measure ICAM-1 expression, a radioimmune assay was developed. In this assay, purified RR1/1 was iodinated using iodogen to a specific activity of 10 »Ci/»g. Endothelial cells were grown in 96 well plates and treated as described for each experiment. The plates were cooled at 4°C by placing in a cold room for 0.5-1 hr, not immediately on ice. The monolayers were washed 3x with cold complete media and then incubated 30 m at 4°C with ¹²⁵I RR1/1. The monolayers were then washed 3x with complete media. The bound ¹²⁵I was released using 0.1 N NaOH and counted. The specific activity of the ¹²⁵I RR1/1 was adjusted using unlabeled RR1/1 to obtain a linear signal over the range of antigen densities encountered in this study. Non-specific binding was determined in the presence of a thousand fold excess of unlabeled RR1/1 and was subtracted from total binding to yield the specific binding.

ICAM-1-LFA-1 adhesion = ICAM-1-LFA-1 adhesion (Homo sapiens, UniProt P05107+P20701); settings: Marlin, S.D., et al., cell 51:813-819 (1987); cited from earlier work
[2] = tested on: Peripheral blood mononuclear cells (PBMC); settings: Table 19, R x S; R6-5-D6 8 ng/ml, Azathioprine 1 ng/ml; no inhibitor 49,570
[3] = tested on: Peripheral blood mononuclear cells (PBMC); assay: cells; settings: Homo sapiens
JY cells = assay: LFA-1 dependent aggregation of JY cells (qualitative and quantitative aggregation assays); type: cell-based; settings: 50 ng/ml of PMA; quantitative assay, 200 rpm, 2 hours; SD = 8%, N = 6
Procedure: In order to assess the extent of cellular adhesion, aggregation assays were employed. Cell lines used in such assays were washed two times with RPMI 1640 medium containing 5 mM Hepes buffer (Sigma Chemical Co., St. Louis) and resuspended to a concentration of 2 x 10⁶ cells/ml. Added to flat-bottomed, 96-well microtiter plates (No. 3596; Costar, Cambridge, MA) were 50 »l of appropriate monoclonal antibody supernatant or 50 »l of complete medium with or without purified monoclonal antibodies, 50 »l of complete medium containing 200 ng/ml of the phorbol ester phorbol myristate acetate (PMA) and 100 »l of cells at a concentration of 2 x 10⁶ cells/ml in complete medium. This yielded a final concentration of 50 ng/ml PMA and 2 x 10⁵ cells/well. Cells were allowed to settle spontaneously, and the degree of aggregation was scored at various time points. […] In order to obtain a more quantitative estimate of cellular adhesion, reagents and cells were added to 5 ml polystyrene tubes in the same order as above. Tubes were placed in a rack on a gyratory shaker at 37°C. […] Percent aggregation was determined by the following equation: [formula] […]
As a second means of measuring adhesion, the quantitative assay described in Example 2 was used. […]

[4] = IFN-γ (10 U/ml) (18 hr), alone or + cycloheximide 20 »g/ml, actinomycin D 10 »M, mean ± SD
[5] = IL 1 (10 U/ml) (4 hr), alone or + cycloheximide 20 »g/ml, actinomycin D 10 »M, tunicamycin 2 »g/ml, mean ± SD
[6] = no cytokine, Control (4 hr) 1524 ± 140, cycloheximide 20 »g/ml, actinomycin D 10 »M, tunicamycin 2 »g/ml, mean ± SD
[7] = no cytokine, Control (4 hr) 11928 ± 600, cycloheximide 20 »g/ml, actinomycin D 10 »M, tunicamycin 2 »g/ml, mean ± SD

Sequence of ICAM-1-LFA-1 adhesion (P20701 26-1170): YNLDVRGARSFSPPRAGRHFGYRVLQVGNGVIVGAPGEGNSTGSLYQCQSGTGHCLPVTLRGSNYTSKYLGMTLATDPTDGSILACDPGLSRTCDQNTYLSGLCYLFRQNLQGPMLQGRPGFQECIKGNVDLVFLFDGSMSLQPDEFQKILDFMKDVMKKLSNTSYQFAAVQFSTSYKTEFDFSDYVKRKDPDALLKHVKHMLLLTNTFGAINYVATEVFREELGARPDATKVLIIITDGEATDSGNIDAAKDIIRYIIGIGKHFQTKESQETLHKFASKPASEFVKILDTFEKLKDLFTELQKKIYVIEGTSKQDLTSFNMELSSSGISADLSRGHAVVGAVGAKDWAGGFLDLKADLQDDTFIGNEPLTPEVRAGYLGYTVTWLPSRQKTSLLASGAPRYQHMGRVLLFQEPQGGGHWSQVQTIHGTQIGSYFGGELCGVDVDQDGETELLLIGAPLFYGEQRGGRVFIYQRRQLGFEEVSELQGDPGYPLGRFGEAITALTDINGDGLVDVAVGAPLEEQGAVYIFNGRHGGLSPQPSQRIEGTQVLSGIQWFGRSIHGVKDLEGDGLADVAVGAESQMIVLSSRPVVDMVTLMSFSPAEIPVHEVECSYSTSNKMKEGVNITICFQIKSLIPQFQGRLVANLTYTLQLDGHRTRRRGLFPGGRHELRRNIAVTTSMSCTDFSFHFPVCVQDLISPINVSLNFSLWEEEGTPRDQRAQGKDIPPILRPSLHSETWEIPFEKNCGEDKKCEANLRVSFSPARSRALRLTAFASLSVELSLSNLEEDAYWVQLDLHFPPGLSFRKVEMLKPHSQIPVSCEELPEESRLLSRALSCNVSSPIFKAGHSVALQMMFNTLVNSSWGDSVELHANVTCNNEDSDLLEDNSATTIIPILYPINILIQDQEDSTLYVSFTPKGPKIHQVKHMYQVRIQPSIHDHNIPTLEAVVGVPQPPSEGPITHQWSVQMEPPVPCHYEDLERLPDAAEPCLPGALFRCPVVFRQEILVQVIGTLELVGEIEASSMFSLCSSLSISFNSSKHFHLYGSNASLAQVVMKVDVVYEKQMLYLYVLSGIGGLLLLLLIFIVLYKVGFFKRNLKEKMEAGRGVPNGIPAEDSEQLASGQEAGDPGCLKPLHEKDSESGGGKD
Sequence of ICAM-1-LFA-1 adhesion (P05107 23-769): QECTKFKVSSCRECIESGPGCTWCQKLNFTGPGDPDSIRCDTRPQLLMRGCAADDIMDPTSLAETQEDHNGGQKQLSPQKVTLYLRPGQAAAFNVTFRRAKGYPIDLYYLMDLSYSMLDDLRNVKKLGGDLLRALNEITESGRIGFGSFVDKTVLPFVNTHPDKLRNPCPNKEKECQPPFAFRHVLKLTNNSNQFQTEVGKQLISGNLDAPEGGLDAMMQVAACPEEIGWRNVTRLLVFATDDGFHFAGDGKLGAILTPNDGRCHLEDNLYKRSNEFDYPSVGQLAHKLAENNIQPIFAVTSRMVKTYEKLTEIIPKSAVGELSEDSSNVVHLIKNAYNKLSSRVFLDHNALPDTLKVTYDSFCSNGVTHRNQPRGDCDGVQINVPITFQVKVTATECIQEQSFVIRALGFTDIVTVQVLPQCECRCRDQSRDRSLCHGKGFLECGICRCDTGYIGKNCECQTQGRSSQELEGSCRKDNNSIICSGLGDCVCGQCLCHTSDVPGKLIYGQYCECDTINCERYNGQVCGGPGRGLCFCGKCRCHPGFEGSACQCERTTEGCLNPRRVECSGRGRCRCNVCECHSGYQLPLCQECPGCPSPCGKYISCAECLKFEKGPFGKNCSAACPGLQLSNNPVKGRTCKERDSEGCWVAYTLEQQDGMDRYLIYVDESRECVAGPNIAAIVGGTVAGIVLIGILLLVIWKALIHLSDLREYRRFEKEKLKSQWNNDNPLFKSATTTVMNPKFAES

Q: Which results are given for `Cc1c2oc3c(C)ccc(C(=O)N[C@@H]4C(=O)N[C@H](C(C)C)C(=O)N5CCC[C@H]5C(=O)N(C)CC(=O)N(C)[C@@H](C(C)C)C(=O)O[C@@H]4C)c3nc-2c(C(=O)N[C@@H]2C(=O)N[C@H](C(C)C)C(=O)N3CCC[C@H]3C(=O)N(C)CC(=O)N(C)[C@@H](C(C)C)C(=O)O[C@@H]2C)c(N)c1=O` [actinomycin D] (I: T[dV]P[Sar][NMeV] / II: T[dV]P[Sar][NMeV]; ester I:1-I:C, II:1-II:C; linker I:N-II:N via Actinocin(9to1))?
A: ¹²⁵I Goat Anti-Mouse IgG Specifically Bound (cpm) anti-HLA-A,B,C (human dermal fibroblasts; [4]): 12089 ± 550 cpm; ¹²⁵I Goat Anti-Mouse IgG Specifically Bound (cpm) anti-ICAM-1 (human dermal fibroblasts; [4]): 1326 ± 186 cpm; ¹²⁵I Goat Anti-Mouse IgG Specifically Bound (cpm) anti-HLA-A,B,C (human dermal fibroblasts; [5]): 12294 ± 123 cpm; ¹²⁵I Goat Anti-Mouse IgG Specifically Bound (cpm) anti-ICAM-1 (human dermal fibroblasts; [5]): 1613 ± 88 cpm; effects of both interleukin 1 and gamma interferon on ICAM-1 expression on fibroblasts (human dermal fibroblasts; cycloheximide 20 »g/ml, actinomycin D 10 »M): abolish; ¹²⁵I Goat Anti-Mouse IgG Specifically Bound (cpm) anti-ICAM-1 (human dermal fibroblasts; [6]): 1590 ± 46 cpm; ¹²⁵I Goat Anti-Mouse IgG Specifically Bound (cpm) anti-HLA-A,B,C (human dermal fibroblasts; [7]): 12276 ± 608 cpm

Q: With polymyxin B as the compound, how does the “¹²⁵I Specifically bound (CPM)” value ([1]; HUVEC, 16 hr, 100 ng/ml rIL-1 beta, 50 ng/ml rIL-1 alpha, 50 ng/ml rTNF alpha, 10 »g/ml LPS, 10 ng/ml rIFN gamma, polymyxin B 10 »g/ml, control 603 ± 11) read?
A: Its value is 480 ± 23 CPM.

Q: And the “decreased ICAM-1 expression (basal)” value ([1]; polymyxin B at 10 »g/ml, cells in low endotoxin serum, additional decrease)?
A: The value was 25%.

Q: For GRGDSP, which “inhibit ICAM-1-LFA-1 adhesion” value (ICAM-1-LFA-1 adhesion) is on record?
A: The value was “failure”.

Q: For `Cn1cnc([N+](=O)[O-])c1Sc1ncnc2nc[nH]c12` [Azathioprine], which “³HT Incorporation (CPM)” value [2] is on record?
A: The value was 42,710 CPM.

Q: What about the inhibition at 0.001 µg/mL [3] of the same compound?
A: Its inhibition at 0.001 µg/mL is 14%.

Q: With GRGESP as the compound, how does the “inhibit ICAM-1-LFA-1 adhesion” value (ICAM-1-LFA-1 adhesion) read?
A: Its value is “failure”.

Q: For `C[C@@H]1C[C@@H]([C@H](O)CC2CC(=O)NC(=O)C2)C(=O)[C@@H](C)C1` [cycloheximide], which “¹²⁵I Goat Anti-Mouse IgG Specifically Bound (cpm) anti-HLA-A,B,C” value (human dermal fibroblasts) is on record?
A: The value was 10675 ± 800 cpm and 10678 ± 471 cpm and 12676 ± 446 cpm.

Q: What about the “¹²⁵I Goat Anti-Mouse IgG Specifically Bound (cpm) anti-ICAM-1” value (human dermal fibroblasts) of the same compound?
A: The value was 1461 ± 59 cpm and 1513 ± 210 cpm and 1619 ± 381 cpm.

Q: With `CCCCCCCCCCCCCC(=O)O[C@@H]1[C@@H](C)[C@@]2(O)[C@@H](C=C(CO)C[C@]3(O)C(=O)C(C)=C[C@@H]23)[C@@H]2C(C)(C)[C@]12OC(C)=O` [PMA, phorbol myristate acetate] as the compound, how does the “JY cells in aggregates” value (JY cells) read?
A: Its value is 87%.

Q: Which “¹²⁵I Goat Anti-Mouse IgG Specifically Bound (cpm) anti-HLA-A,B,C” value (human dermal fibroblasts; [5]) does the source give for tunicamycin here?
A: The value was 13434 ± 661 cpm.

Q: What about the “¹²⁵I Goat Anti-Mouse IgG Specifically Bound (cpm) anti-ICAM-1” value (human dermal fibroblasts; [5]) of the same compound?
A: Its value is 3084 ± 113 cpm.

Q: What about the “inhibited the interleukin 1 effect on ICAM-1 expression” value (human dermal fibroblasts; fibroblasts, tunicamycin 2 »g/ml) of the same compound?
A: Its value is 43%.

Q: And the “¹²⁵I Goat Anti-Mouse IgG Specifically Bound (cpm) anti-ICAM-1” value (human dermal fibroblasts; [6])?
A: Its value is 1461 ± 176 cpm.

Q: And the “¹²⁵I Goat Anti-Mouse IgG Specifically Bound (cpm) anti-HLA-A,B,C” value (human dermal fibroblasts; [7])?
A: The value was 12340 ± 940 cpm.
